Results on 1 compound are retold here after US20250214978A1, “AT2R AGONIST” (WUHAN HUMANWELL INNOVATIVE DRUG RESEARCH AND DEVELOPMENT …, priority 2022, published 2025).

The structures appear in SMILES notation. Like-named read-outs stand apart in the source and are kept apart here.

One may read the IC50 as the concentration that gives 50% inhibition. As usually defined, the Papp A→B is the apparent permeability from the apical to the basolateral side of a cell layer. As a reminder, the inhibition is the share of the control response that was lost under treatment.

Data set [1] has as its target AT2R (Homo sapiens (Human), UniProt P50052). In words: Binding assay of compounds to AT2R (Tag-lite HTRF ligand binding kit). As to conditions: 1 hour incubation at room temperature. How it is done:
The assay was performed in accordance with the instruction manual of Angiotensin AT2 Receptor Ligand Binding Assay Kit (#C1TT1AT2, Cisbio). First, a compound stock solution (10 mM) was diluted in a gradient at a 5× dilution ratio (including 10 concentrations, each with two replicates). 160 nL of compounds at different concentrations was added to a 384-well plate. 40 μL of 1×TLB was added to each well, and the mixture was shaken at room temperature for 15 minutes. 15 mL centrifuge tube added with 5 mL of 1×TLB was prepared in advance. The frozen labeled cells were thawed in a water bath at 37° C. (for 1 to 2 minutes), and the thawed cells were quickly transferred to the above 15 mL centrifuge tube. The mixture was mixed well and centrifuged at 1,000 g at room temperature for 5 minutes. The supernatant was removed, and the cells were resuspended by adding 2.7 mL 1×TLB. A new 384-well plate was taken, and 10 μL of mixed cells were added into the corresponding wells according to the assay design. 5 μL of 4× compound solution and 5 μL of 4× Tag-lite red fluorescent labeled ligand were added to each well. After incubation at room temperature for 1 hour, data were read using EnVision with an HTRF mode. The excitation light intensities at 665 nM and 615 nM in each well were read respectively, and the ratio was calculated (Ratio=A665nMIB615 nM). The IC50 value was calculated by means of GraphPad Prism8 software, where X represents logarithmic value of compound concentration; and Y represents ratio of A665 nM/B615 nM.

Data set [2] can be described thus: Liver microsome stability assay. It counts as in vitro ADME. The settings on record: Human liver microsomes, NADPH, 37° C.; read-out: T1/2 (min) Human. As to the method: The human liver microsome stability assay was performed by co-incubating the compound with human liver microsomes in vitro. The test compounds were first prepared as 10 mM stock solutions in DMSO solvent, and then diluted to 0.5 mM with acetonitrile. Human liver microsomes (Corning) were diluted with PBS to prepare a microsome/buffer solution, and this solution was used to dilute 0.5 mM of the compound to prepare a working solution. In the working solution, a concentration of the compound was 1.5 μM and a concentration of the human liver microsome was 0.75 mg/ml. A deep-well plate was taken, 30 μL of working solution was added to each well of the plate, and then 15 μL of pre-heated NADPH solution (6 mM) was added to start the reaction. The mixture was incubated at 37° C. 135 μL of acetonitrile was added to the corresponding wells to stop the reaction at 0 minute, 5 minutes, 15 minutes, 30 minute, and 45 minutes of incubation. Subsequent to the stop of the reaction by means of acetonitrile at the last time point of 45 minute, the plate was vortexed for 10 minutes (600 rpm/min) and then centrifuged for 15 minutes. […] The peak area ratios of the compound at 5 minutes, 15 minutes, 30 minutes, and 45 minutes were compared with the peak area ratio at 0 minute, and the remaining percentage of the compound at each time point was calculated. T1/2 was calculated using Graphpad8 software.

Data set [3] can be described thus: Bidirectional permeability study in CACO-2 cells. It counts as in vitro ADME. The settings on record: human, pH 7.4, Caco-2 monolayer, pH 7.40. How it is done:
Caco-2 cells were inoculated onto polyethylene membrane (PET) in 96-well inserted plates at a rate of 1×10^5 cells/cm^2, and the medium was changed every 4 to 5 days until day 21 to 28, to form a fused cell monolayer. The transport buffer in the assay was HBSS and 10.0 mM HEPES, with a pH of 7.40±0.05. The test compounds were subjected to a bidirectional test at 2.00 μM in the presence and absence of GF120918 (10.0 μM). Digoxin was subjected to a bidirectional test at 10.0 μM in the presence and absence of GF120918 (10.0 μM), while Nadolol and Metoprolol were subjected to a test from direction A to direction B at 2.00 μM in the absence of GF120918 (10.0 μM). The above tests were performed in duplicate. The final concentration of DMSO was adjusted to be lower than 1%. The plate was incubated in a CO2 incubator at 37° C.±1° C. for 2 hours, and 5% CO2 was added under saturated humidity without shaking. All the samples, after being mixed with acetonitrile containing internal standard, were centrifuged at 3,200 g for 10 minutes. […] The concentrations of the test compounds and control compounds in the starting solution, the donor solution, and the acceptor solution were quantified by LC-MS/MS based on a peak area ratio of the analyte to the internal standard.
After the transport assay, the integrity of the Caco-2 cell monolayer was determined using Lucifer Yellow Exclusion Assay.

Data set [4] is described as follows: Liver microsome stability assay. It counts as in vitro ADME. As to conditions: dog; Canine liver microsomes; read-out: T1/2 (min) Canine. A general note: Microsomes from liver hold many membrane-bound enzymes, among them those of drug oxidation.
In data set [5] the target is CYP2C8 (Homo sapiens (Human), UniProt P10632). Kind of data set: CYP inhibition assay in mixed human liver microsomes. As to conditions: mixed (pooled) human liver microsomes, read-out: Inhibition rate % CYP2C8. It counts as in vitro ADME. As to the method:
(§1) The inhibitory effects of the compounds on seven enzymes, i.e., CYP1A2, CYP2C9, CYP2C19, CYP2D6, CYP3A4 (midazolam), CYP2B6, and CYP2C8, were evaluated at a concentration of 10 μM. Mixed human liver microsomes, which were previously stored in a −80° C. refrigerator before use, were taken out and thawed in a water bath at 37° C. before use, and placed on ice for further operation. 100 μL of microsome working solution was taken, and added with 2 μL of test product or positive inhibitor working solution. 2 μL of solvent was added to the solvent control. The mixture was pre-incubated in a water bath at 37° C. for 10 minutes. After preincubation, 98 μL of NADPH regeneration solution was added to all samples to initiate the reaction. Then, the samples were put back into the water bath and incubated for a period of time. The reaction was quenched with 200 μL of stop solution. The plate was centrifuged at 3,220 g for 10 minutes, 100 μL of supernatant was transferred, and 100 μL of water was added and mixed well to the assay plate for LC/MS/MS analysis.

The target in data set [6] is CYP2C9 (Homo sapiens (Human), UniProt P11712). Described as above. It counts as in vitro ADME. The settings on record: mixed (pooled) human liver microsomes, read-out: Inhibition rate % CYP2C9. As to the method:
as §1

For data set [7], the target named is CYP2D6 (Homo sapiens (Human), UniProt P10635). The data set is described as above. It counts as in vitro ADME. As to conditions: mixed (pooled) human liver microsomes, read-out: Inhibition rate % CYP2D6. As to the method: as §1
Chain of CYP2D6 (P10635 whole entry): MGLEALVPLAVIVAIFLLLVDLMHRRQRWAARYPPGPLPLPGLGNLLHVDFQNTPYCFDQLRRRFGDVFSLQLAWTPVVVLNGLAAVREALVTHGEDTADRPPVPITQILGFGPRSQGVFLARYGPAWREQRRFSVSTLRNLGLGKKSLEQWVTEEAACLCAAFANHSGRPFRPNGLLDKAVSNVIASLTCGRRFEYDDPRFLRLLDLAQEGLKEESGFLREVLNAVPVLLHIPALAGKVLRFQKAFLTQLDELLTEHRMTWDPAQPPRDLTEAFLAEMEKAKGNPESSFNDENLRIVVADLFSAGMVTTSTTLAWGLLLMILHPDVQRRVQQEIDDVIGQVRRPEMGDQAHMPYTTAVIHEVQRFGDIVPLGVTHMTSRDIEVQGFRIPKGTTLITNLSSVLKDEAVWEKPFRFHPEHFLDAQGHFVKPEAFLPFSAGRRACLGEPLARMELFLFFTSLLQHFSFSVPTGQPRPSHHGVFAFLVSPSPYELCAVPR

Chain of CYP2C9 (P11712 whole entry): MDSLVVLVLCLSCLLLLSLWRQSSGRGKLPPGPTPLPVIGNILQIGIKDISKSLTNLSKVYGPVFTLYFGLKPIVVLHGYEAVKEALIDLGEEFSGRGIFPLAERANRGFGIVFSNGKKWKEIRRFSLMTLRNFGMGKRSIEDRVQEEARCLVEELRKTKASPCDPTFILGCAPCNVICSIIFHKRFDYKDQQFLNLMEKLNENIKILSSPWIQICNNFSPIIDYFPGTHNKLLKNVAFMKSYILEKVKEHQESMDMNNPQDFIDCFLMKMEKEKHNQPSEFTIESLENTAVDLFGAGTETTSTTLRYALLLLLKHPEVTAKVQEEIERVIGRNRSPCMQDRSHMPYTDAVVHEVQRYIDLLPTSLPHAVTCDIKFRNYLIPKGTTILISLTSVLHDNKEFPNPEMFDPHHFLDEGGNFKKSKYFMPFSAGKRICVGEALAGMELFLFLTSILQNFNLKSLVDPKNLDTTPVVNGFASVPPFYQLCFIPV
Chain of CYP2C8 (P10632 whole entry): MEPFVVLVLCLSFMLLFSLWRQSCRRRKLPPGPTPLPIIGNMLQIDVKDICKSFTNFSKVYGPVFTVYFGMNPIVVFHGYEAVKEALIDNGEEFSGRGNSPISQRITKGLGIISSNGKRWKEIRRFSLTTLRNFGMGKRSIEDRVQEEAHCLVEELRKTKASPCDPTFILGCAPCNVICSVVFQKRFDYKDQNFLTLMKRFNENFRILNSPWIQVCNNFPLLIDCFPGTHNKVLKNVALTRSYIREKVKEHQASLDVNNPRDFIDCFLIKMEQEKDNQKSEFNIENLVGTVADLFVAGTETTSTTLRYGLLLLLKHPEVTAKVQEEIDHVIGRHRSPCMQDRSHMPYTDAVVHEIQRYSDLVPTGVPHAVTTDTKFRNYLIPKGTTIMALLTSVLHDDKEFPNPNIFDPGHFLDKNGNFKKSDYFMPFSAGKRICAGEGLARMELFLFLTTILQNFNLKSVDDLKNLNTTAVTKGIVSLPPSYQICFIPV
Chain of AT2R (P50052 whole entry): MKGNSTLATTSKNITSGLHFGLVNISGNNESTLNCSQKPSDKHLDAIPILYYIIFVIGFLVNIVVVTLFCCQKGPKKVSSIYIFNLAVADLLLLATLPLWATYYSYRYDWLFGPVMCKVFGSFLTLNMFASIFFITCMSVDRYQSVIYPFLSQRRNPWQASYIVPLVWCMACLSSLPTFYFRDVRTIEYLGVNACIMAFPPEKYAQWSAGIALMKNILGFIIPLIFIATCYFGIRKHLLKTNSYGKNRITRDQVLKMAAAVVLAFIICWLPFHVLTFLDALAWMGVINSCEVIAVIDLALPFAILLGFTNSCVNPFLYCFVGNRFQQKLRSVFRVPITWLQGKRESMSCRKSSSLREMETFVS

For `COC(=O)NS(=O)(=O)c1sc(CC(C)C)c(C)c1-c1ccc(Cn2ccnc2Cl)cc1` [Compound I-34, Methyl ((3-(4-((2-chloro-1H-imidazol-1-yl)methyl)phenyl)-5-isobutyl-4-methylthiophen-2-yl)sulfonyl)carbamate], the concentration for half-maximal inhibition (IC50) in data set [1] amounted to 4.32 nM. In addition, the half-life at 1 μM in data set [2] is 45 min; in data set [4], 122 min. For the same compound, the Papp A→B at 2 h, 2 μM in data set [3] stood at 3.13 ×10⁻⁶ cm/s. Also, the inhibition at 10 µM in data set [5] is 71.8%; in data set [6] it was 77.3%; in data set [7], 12.6%.
